Data: patent US20230313305A1, “METHODS AND USES OF INFLAMMATORY BOWEL DISEASE BIOMARKERS” (Washington University, priority 2017, published 2023)

Legend:
[1] = test system: primary intestinal epithelial cells; test: IL-17A added to primary cultured intestinal epithelial cells (microarray, qPCR); type: cell-based, mouse; conditions: 20 ng/ml IL-17A
Source text: Despite the important role of IL-17 in autoimmunity and inflammatory bowel disease (IBD) its function in the mucosa in disease is still unclear. In IBD, IL-17 is produced in part by mucosal pro-inflammatory Th17 cells. […] To investigate this possibility, we treated primary cultured intestinal epithelial cells with IL-17 and conducted transcriptomic analysis. […] This process was inhibited by PAI-1. […] This study identifies a new pathway in UC where dysregulated PAI-1 leads to exacerbated inflammation and disease activity by blocking an IL-17-tPA-TGF-β axis.
From colon epithelial lines n=4; Stem cells; Stem cells (2 days); DM; Colonocytes; With and without 20 ng/ml IL-17A.
We sought a marker of intestinal inflammation in IBD that is downstream of multiple inflammatory pathways. We first performed RNA microarray analysis on primary mouse intestinal epithelial cells treated these cells with IL-17 (a known important inflammatory cytokine in IBD). We cross-referenced a list of 23 molecules with enhanced mRNA production in these cells grown multiple states to lists of molecules with enhanced expression in IBD colon biopsies. We identified that the Plat/Serpine1 pathway was enriched. […]

colon spheroids = test: TGFβ on colon spheroids, serpine1/PAI-1 expression; type: cell-based; conditions: colon spheroids (FIG. 25)
Source text: FIG. 25. TGFβ drives serpine1/PAI-1 expression in the colon spheroids (negative feedback loop)

## IL-17: inflammatory cytokine added to primary intestinal epithelial cells
[1]
  production of tissue plasminogen activator (tPA) by epithelial cells: induced

## TGFβ
Colon spheroids
  serpine1/PAI-1 expression: drives
